The subject of this assay is Salmonella typhmurium and Escherichia coli. The assay is described as follows: Production of antimicrobial metabolites, agar well diffusion assay. Particulars: pH 4.5; data not shown. It is filed as cell-based. How it is done: The probiotic strains of this invention were assessed for their capability to produce antimicrobial metabolites using an agar well diffusion assay. MRS agar plates containing 10^6 cfu/ml of different pathogenic bacteria strain (Salmonella typhmurium and Escherichia coli) were prepared. Wells, with a diameter of 5 mm, where then cut in the agar using a sterile cork-borer. Then, 50 μl of a 2 fold concentrate supernatant of each probiotic strain culture were added to the wells and allowed to diffuse into the agar during a 2 hours preincubation period at 4° C., followed by aerobic incubation of the plates at 37° C. for 16-18 hours. The antimicrobial activity of each supernatant was considered high if the diameter of the inhibition hallo for both pathogenic bacteria strains was >12, moderate between 8 and 12, and slight <8 (FIG. 11)
Moreover, it was also tested if the antimicrobial activity of the supernatants was due to a antimicrobial substance or to the production of metabolic acids. […] It was also tested the antimicrobial capabilities of supernatants obtained from bacterial cultures using glucose or lactose as a carbohydrate source.
(In agar diffusion tests the substance spreads into inoculated agar from a disc or well.)

Results on two compounds are retold here after patent publication US20040057943A1, “Probiotic strains, a process for the selection of them, compositions thereof, and their use” (priority 2002, published 2004).

On to `CC(=O)O` [acetic], for which the “Inhibitory effect of a dilution of metabolic acid on growth of Salmonella or E. coli” value is “None of these situations inhibited the growth”.

For `CCCC(=O)O` [butyric, butyric acid], the “Inhibitory effect of a dilution of metabolic acid on growth of Salmonella or E. coli” value is given as “None of these situations inhibited the growth”.
